From patent publication US20100218416A1, “HYDROXYMETHYLFURFURAL ETHERS FROM SUGARS OR HMF AND BRANCHED ALCOHOLS” (FURANIX TECHNOLOGIES B.V., priority 2007, published 2010)
Like-named read-outs stand apart in the source and are kept apart here.

What was measured:
[1] = Fuel solubility: miscibility in blends with commercial diesel; format: physicochemical
From the text: Fuel solubility is a primary concern for diesel fuel applications. Not all highly polar oxygenates have good solubility in the current commercial diesel fuels.
The engine is run stationary with regular diesel initially, after which the fuel supply is switched to the 40 vol % tBMF-diesel blend.

[2] = Oxidation stability of blend with additive free diesel fuel (NF en ISO 12205); format: physicochemical; conditions: 0.1 vol % blend with additive free diesel fuel
Description: Likewise, oxygenated fuel additives, certainly when containing an aldehyde functional group, often reduce the oxidation stability of the base diesel fuel. A 0.1 vol % blend of tBMF with additive free diesel fuel was prepared at an outside laboratory for oxidation stability determination according to NF en ISO 12205 certified methods.

miscibility with commercial diesel ([1]; 5 vol % blend with commercial diesel)	miscibility with commercial diesel ([1]; 25 vol % blend with commercial diesel)	miscibility with commercial diesel ([1]; 40 vol % blend with commercial diesel)	SMILES	miscibility with commercial diesel [1]	mixing or flocculation problems [1]	oxidation stability versus reference additive-free diesel [2]
completely miscible	phase separation occurs	phase separation occurs	CCOCc1ccc(C=O)o1 [EMF, ethoxymethylfurfural, reference compound]			
			CC(C)(C)OCc1ccc(C=O)o1 [tBMF, 5-(tert-Butoxymethyl)furfural]	completely miscible	does not yield any mixing or flocculation problems	same oxidation stability
